Test results taken from US12679832B2, “Compounds and their uses as CD38 inhibitors” (Nanjing Immunophage Biotech Co., Ltd., priority 2021, dated 2026).
Structures can show the parent of a compound that is named as a salt.

The compounds below were run against T1, hCD38 Enzyme (Homo sapiens, UniProt P28907) (assay: CD38 hydrolase enzymatic assay). Conditions: rhCD38, ε-NAD substrate, 25° C., point reading time 20 mins; read-out: hCD38 Enzyme inhibition IC50.
T1 construct: purchased Sino Biological Inc 10818-H08H
T1 sequence (P28907 43-300 limits assumed): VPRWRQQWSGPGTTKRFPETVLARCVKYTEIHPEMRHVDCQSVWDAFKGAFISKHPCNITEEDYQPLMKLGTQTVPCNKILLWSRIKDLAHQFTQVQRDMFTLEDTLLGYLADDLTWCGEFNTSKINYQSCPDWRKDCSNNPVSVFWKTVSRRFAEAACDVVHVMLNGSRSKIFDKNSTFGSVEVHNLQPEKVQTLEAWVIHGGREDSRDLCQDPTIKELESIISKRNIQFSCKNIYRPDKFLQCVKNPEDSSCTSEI
Type: biochemical
Description: Also, a blank sample was prepared with 50 μl of sucrose buffer and no test compounds.
The dynamic reading was performed at 25° C. with excitation light of 300 nm and emission light of 410 nm on the enzyme marker by contacting the above-prepared rhCD38 enzyme working fluid and the above-prepared solutions of the test compounds disclosed herein or the solution of the control. The readings were recorded for a total of 1 hour, and the data were analyzed with the point reading time of 20 mins.
Fluorescence was recorded by a microplate reader. Individual excel files containing fluorescence data were exported and the results were plotted against various drug concentrations and analyzed in GraphPad Prism 7.0 for concentration curve generation.

Row | SMILES | IC50 [nM]
1 | Nc1ccc(-n2ccnc2)nc1C(=O)NC1CCCCC1 [compound 61, 3-amino-N-cyclohexyl-6-(1H-imidazol-1-yl)picolinamide] | 15
2 | N#Cc1cncc(NC(=O)c2cc(C(F)(F)F)nc(-n3ccnc3)n2)c1 [compound 169, N-(5-cyanopyridin-3-yl)-2-(1H-imidazol-1-yl)-6-(trifluoromethyl) pyrimidine-4-carboxamide] | 20
3 | CO[C@H]1CC[C@H](NC(=O)c2cccc(-c3cncs3)n2)CC1 [compound 12, N-((1r,4r)-4-methoxycyclohexyl)-6-(thiazol-5-yl)picolinamide] | > 10000
4 | CO[C@H]1CC[C@H](NC(=O)c2cc(-n3ccnc3)ncc2N)CC1 [compound 69, 5-amino-2-(1H-imidazol-1-yl)-N-((1r,4r)-4-methoxycyclohexyl) isonicotinamide] | 111
5 | CO[C@H]1CC[C@H](NC(=O)c2ccc(C)c(-n3ccnc3)n2)CC1 [compound 76, 6-(1H-imidazol-1-yl)-N-((1r,4r)-4-methoxycyclohexyl)-5-methylpicolinamide] | > 10000
6 | CO[C@H]1CC[C@H](NC(=O)c2nc(-c3cncs3)cnc2N)CC1 [compound 27, 3-amino-N-((1r,4r)-4-methoxycyclohexyl)-6-(thiazol-5-yl)pyrazine-2-carboxamide] | 842
7 | O=C(NC1CCNCC1)c1cc(C(F)(F)F)nc(-n2ccnc2)n1 [compound 162, 2-(1H-imidazol-1-yl)-N-(piperidin-4-yl)-6-(trifluoromethyl) pyrimidine-4-carboxamide hydrochloride] | > 10000
8 | CO[C@H]1CC[C@H](NC(=O)c2nc(-n3ccnc3)cnc2N(C)C)CC1 [compound 46, 3-(dimethylamino)-6-(1H-imidazol-1-yl)-N-((1r,4r)-4-methoxycyclohexyl) pyrazine-2-carboxamide] | 536
9 | O=C(Nc1ccccn1)c1ccnc(-n2ccnc2)n1 [compound 112, 2-(1H-imidazol-1-yl)-N-(pyridin-2-yl)pyrimidine-4-carboxamide] | 20
10 | O=C(Nc1cc(F)cc(N2CCNCC2)c1)c1cc(C(F)(F)F)nc(-n2ccnc2)n1 [compound 175, N-(3-fluoro-5-(piperazin-1-yl)phenyl)-2-(1H-imidazol-1-yl)-6-(trifluoromethyl) pyrimidine-4-carboxamide] | 68
11 | CO[C@H]1CC[C@H](NC(=O)c2cc(-n3ccnc3)cnn2)CC1 [compound 28, 5-(1H-imidazol-1-yl)-N-((1r,4r)-4-methoxycyclohexyl)pyridazine-3-carboxamide] | 22500
12 | CO[C@H]1CC[C@H](NC(=O)c2nc(-n3ccnc3)ncc2C(F)(F)F)CC1 [compound 161, 2-(1H-imidazol-1-yl)-N-((1r,4r)-4-methoxycyclohexyl)-5-(trifluoromethyl) pyrimidine-4-carboxamide] | 831
13 | O=C(Nc1cccc(F)c1)c1nc(-n2ccnc2)ccc1C(F)(F)F [compound 159, N-(3-fluorophenyl)-6-(1H-imidazol-1-yl)-3-(trifluoromethyl) picolinamide] | 34
14 | CO[C@H]1CC[C@H](NC(=O)c2cc(-n3ccnc3)cc(=O)[nH]2)CC1 [compound 3, 4-(1H-imidazol-1-yl)-N-((1r,4r)-4-methoxycyclohexyl)-6-oxo-1.6-dihydropyridine-2-carboxamide] | > 10000
15 | CO[C@H]1CC[C@H](NC(=O)c2cc(-c3ccnc(C(F)(F)F)c3)nc(-n3ccnc3)n2)CC1 [Compound 184] | 28
16 | O=C(Nc1cncnc1)c1cc(C(F)(F)F)cc(-n2ccnc2)n1 [compound 192, 6-(1H-imidazol-1-yl)-N-(pyrimidin-5-yl)-4-(trifluoromethyl) picolinamide] | 6.1

Row | SMILES | IC50 [nM]
17 | O=C(NC1CCCCC1)c1cc(N2CCCCC2)cc(-n2ccnc2)n1 [compound 130, N-cyclohexyl-6-(1H-imidazol-1-yl)-4-(piperidin-1-yl)picolinamide] | 149
18 | O=C(Nc1cnc(OCCO)nc1)c1cc(C(F)(F)F)nc(-n2ccnc2)n1 [compound 193, N-(2-(2-hydroxyethoxy)pyrimidin-5-yl)-2-(1H-imidazol-1-yl)-6-(trifluoromethyl) pyrimidine-4-carboxamide] | 11
19 | CO[C@H]1CC[C@H](NC(=O)c2cc(-n3ccnc3)nnc2N)CC1 [compound 10, 3-amino-6-(1H-imidazol-1-yl)-N-((1r,4r)-4-methoxycyclohexyl)pyridazine-4-carboxamide] | 725
20 | CO[C@H]1CC[C@H](NC(=O)c2cccc(-c3nnco3)n2)CC1 [compound 19, N-((1r,4r)-4-methoxycyclohexyl)-6-(1,3,4-oxadiazol-2-yl) picolinamide] | > 10000
21 | CO[C@H]1CC[C@H](NC(=O)c2cccc(-c3cncs3)c2F)CC1 [compound 8, 2-fluoro-N-((1r,4r)-4-methoxycyclohexyl)-3-(thiazol-5-yl)benzamide] | > 10000
22 | N#Cc1cc(C(=O)Nc2cccc(F)c2)nc(-n2ccnc2)n1 [compound 185, 6-cyano-N-(3-fluorophenyl)-2-(1H-imidazol-1-yl) pyrimidine-4-carboxamide] | 2
23 | O=C(Nc1ccncc1)c1cc(C(F)(F)F)cc(-n2ccnc2)n1 [compound 190, 6-(1H-imidazol-1-yl)-N-(pyridin-4-yl)-4-(trifluoromethyl) picolinamide] | 2.8
24 | CO[C@H]1CC[C@H](NC(=O)c2cc(-c3cncs3)cc3cc[nH]c23)CC1 [compound 29, N-((1r,4r)-4-methoxycyclohexyl)-5-(thiazol-5-yl)-1H-indole-7-carboxamide] | 25
25 | O=C(Nc1cc(F)cc(F)c1)c1cc(C(F)(F)F)nc(-n2ccnc2)n1 [compound 174, N-(3,5-difluorophenyl)-2-(1H-imidazol-1-yl)-6-(trifluoromethyl) pyrimidine-4-carboxamide] | 5.4
26 | O=C(Nc1cccc(F)c1)c1ccnc(-n2cccn2)n1 [compound 102, N-(3-fluorophenyl)-2-(1H-pyrazol-1-yl)pyrimidine-4-carboxamide] | > 10000
27 | CO[C@H]1CC[C@H](NC(=O)c2ccc(N)c(-n3ccnc3)n2)CC1 [compound 20, 5-amino-6-(1H-imidazol-1-yl)-N-((1r,4r)-4-methoxycyclohexyl)picolinamide] | > 10000
28 | CO[C@H]1CC[C@H](NC(=O)c2nc(-n3ccnc3)ccc2C(F)(F)F)CC1 [compound 151, 6-(1H-imidazol-1-yl)-N-((1r,4r)-4-methoxycyclohexyl)-3-(trifluoromethyl) picolinamide] | 1550
29 | CO[C@H]1CC[C@H](NC(=O)c2cc(N3CCCCC3)nc(-n3ccnc3)n2)CC1 [compound 26, 2-(1H-imidazol-1-yl)-N-((1r,4r)-4-methoxycyclohexyl)-6-(piperidin-1-yl)pyrimidine-4-carboxamide] | 46
30 | O=C(Nc1cc(F)ccc1F)c1cc(N2CCCCC2)nc(-n2ccnc2)n1 [compound 135, N-(2,5-difluorophenyl)-2-(1H-imidazol-1-yl)-6-(piperidin-1-yl)pyrimidine-4-carboxamide] | 36
31 | O=C(Nc1ccccc1)c1cncc(-n2ccnc2)n1 [compound 35, 6-(1H-imidazol-1-yl)-N-phenylpyrazine-2-carboxamide] | 4
32 | O=C(NC1CCOCC1)c1cc(C(F)(F)F)nc(-n2ccnc2)n1 [compound 163, 2-(1H-imidazol-1-yl)-N-(tetrahydro-2H-pyran-4-yl)-6-(trifluoromethyl) pyrimidine-4-carboxamide] | 92
